Laboratory results reported in patent US20240116946A1 (Gilead Sciences, Inc., priority 2022, published 2024).
Read-outs that look alike come from different tables or passages of the source.

What was measured:
[1] = biological target: recombinant SARS-CoV-2 Main protease (Mpro) (Severe acute respiratory syndrome coronavirus 2 (2019-nCoV) (SARS-CoV-2), UniProt P0DTD1); assay: Cov Mpro Biochemical IC50 Assay; settings: recombinant SARS-CoV-2 Mpro 7.5 nM, fluorogenic peptide substrate 40 μM; read-out: MPro IC50
SARS-CoV-2-NLuc = assay: microbe, parasite or virus in culture; assay type: cell-based, SARS Coronavirus 2
[2] = Severe acute respiratory syndrome coronavirus, 48 h, read-out: MPro EC50
[3] = Severe acute respiratory syndrome coronavirus, 48 h; read-out: MPro EC50

Structure (SMILES) | IC50 [1] | EC50 (SARS-CoV-2-NLuc; [2]) | EC50 (SARS-CoV-2-NLuc; [3])
COc1ccc(Cl)c(-c2ccc3c(=O)n(-c4cncc5ccc(N6CC(OC)C6)cc45)c(=O)[nH]c3c2)c1 [Example 408] | 42.7 nM | 108 nM | –
COc1ccc(Cl)c(-c2ccc3c(=O)n(-c4cncc5ccc(N6CC[C@H](OC)C6)cc45)c(=O)[nH]c3c2)c1 [Example 409] | 15.7 nM | 77.4 nM | –
COc1ccc(Cl)c(-c2ccc3c(=O)n(-c4cncc5ccc(N6CC7(CCOC7)C6)cc45)c(=O)[nH]c3c2)c1 [Example 410] | 12.8 nM | – | 58.6 nM
COc1ccc(Cl)c(-c2ccc3c(=O)n(-c4cncc5ccc(N6CC7(CNC(=O)C7)C6)cc45)c(=O)[nH]c3c2)c1 [Example 411] | 8.93 nM | – | 221 nM
COc1ccc(Cl)c(-c2ccc3c(=O)n(-c4cncc5ccc(N6CC7(COCCO7)C6)cc45)c(=O)[nH]c3c2)c1 [Example 412] | 10.8 nM | – | 38.3 nM
O=c1[nH]c2cc(-c3ccccc3Cl)sc2c(=O)n1-c1cncc2ccc(N3CCC(F)(F)C3)cc12 [Example 413] | 5.46 nM | 66.8 nM | –
COc1ccc(Cl)c(-c2cc3[nH]c(=O)n(-c4cncc5ccc(N6CCC(F)(F)C6)cc45)c(=O)c3s2)c1 [Example 414] | 7.63 nM | 20.1 nM | –
COc1ccc(Cl)c(-c2cc3[nH]c(=O)n(-c4cncc5ccc(N6CCO[C@H](C(F)(F)F)C6)cc45)c(=O)c3s2)c1 [Example 415] | 11.7 nM | – | 26.6 nM
COc1ccc(Cl)c(-c2cc3[nH]c(=O)n(-c4cncc5ccc(N6CCNC(=O)C6)cc45)c(=O)c3s2)c1 [Example 416] | 4.63 nM | 187 nM | –
O=c1[nH]c2cc(-c3ccccc3Cl)sc2c(=O)n1-c1cncc2ccc(N3CCO[C@H](C(F)(F)F)C3)cc12 [Example 417] | 17.8 nM | 160 nM | –
COc1ccc(C#N)c(-c2cc3[nH]c(=O)n(-c4cncc5ccc(N6CCC(F)(F)C6)cc45)c(=O)c3s2)c1 [Example 418] | 21.4 nM | 126 nM | –
O=c1[nH]c2cc(-c3ccccc3Cl)sc2c(=O)n1-c1cncc2ccc(N3CC4(C3)CC(F)(F)C4)cc12 [Example 419] | 21.1 nM | 74.9 nM | –
O=c1[nH]c2cc(-c3ccccc3Cl)sc2c(=O)n1-c1cncc2ccc(N3CC(F)(F)C3)cc12 [Example 420] | 10.8 nM | 50.9 nM | –
CS(=O)(=O)N1CCN(c2ccc3cncc(-n4c(=O)[nH]c5cc(-c6ccccc6Cl)sc5c4=O)c3c2)CC1 [Example 421] | 4.42 nM | 38.8 nM | –
CC(=O)N1CC2(C1)CN(c1ccc3cncc(-n4c(=O)[nH]c5cc(-c6ccccc6Cl)sc5c4=O)c3c1)C2 [Example 422] | 7.75 nM | – | 134 nM
O=C(C1CC1)N1CCN(c2ccc3cncc(-n4c(=O)[nH]c5cc(-c6ccccc6Cl)sc5c4=O)c3c2)CC1 [Example 423] | 6.5 nM | 53.7 nM | –
CS(=O)(=O)N1CC2(CN(c3ccc4cncc(-n5c(=O)[nH]c6cc(-c7ccccc7Cl)sc6c5=O)c4c3)C2)C1 [Example 424] | 11.3 nM | 55.8 nM | –
COc1ccc(Cl)c(-c2cc3[nH]c(=O)n(-c4cncc5ccc(N6CCN(S(C)(=O)=O)CC6)cc45)c(=O)c3s2)c1 [Example 425] | 7.69 nM | – | 30 nM
O=c1[nH]c2cc(-c3ccccc3Cl)sc2c(=O)n1-c1cncc2ccc(N3CC(O)(C(F)(F)F)C3)cc12 [Example 426] | 21.3 nM | 40.9 nM | –
O=c1[nH]c2cc(-c3ccccc3Cl)sc2c(=O)n1-c1cncc2ccc(N3CCC(O)(C(F)(F)F)CC3)cc12 [Example 427] | 15.6 nM | 24 nM | –
COc1ccc(C#N)c(-c2cc3[nH]c(=O)n(-c4cncc5ccccc45)c(=O)c3cc2F)c1 [Example 428, 2-(6-fluoro-3-(isoquinolin-4-yl)-2,4-dioxo-1,2,3,4-tetrahydroquinazolin-7-yl)-4-methoxybenzonitrile] | 10.2 nM | 17.9 nM | –
COc1ccc(C#N)c(-c2cc3[nH]c(=O)n(-c4cncc5ccc(OC)cc45)c(=O)c3cc2F)c1 [Example 429] | 2.83 nM | 11.2 nM | –
COc1ccc(Cl)c(-c2ccc3c(=O)n(-c4cncc5ccc(N6CCOCC6)cc45)c(=O)[nH]c3c2)c1 [Example 430] | 11.8 nM | – | 18.5 nM
COc1ccc(C#N)c(-c2ccc3c(=O)n(-c4cncc5ccc(N6CCOCC6)cc45)c(=O)[nH]c3c2)c1 [Example 431] | 10.5 nM | 71.3 nM | –

Structure (SMILES) | IC50 [1] | EC50 (SARS-CoV-2-NLuc; [2]) | EC50 (SARS-CoV-2-NLuc; [3])
COc1ccc(Cl)c(-c2cc3[nH]c(=O)n(-c4cncc5ccc(N6CCOCC6)cc45)c(=O)c3s2)c1 [Example 432] | 6.99 nM | – | 6.37 nM
COc1ccc(C#N)c(-c2cc3[nH]c(=O)n(-c4cncc5ccc(N6CCOCC6)cc45)c(=O)c3s2)c1 [Example 433] | 7.8 nM | 69.5 nM | –
COc1ccc(Cl)c(-c2cc3[nH]c(=O)n(-c4cncc5ccc(N6CCOCC6)cc45)c(=O)c3cc2F)c1 [Example 434] | 16 nM | – | 33.3 nM
COc1ccc(C#N)c(-c2cc3[nH]c(=O)n(-c4cncc5ccc(N6CCOCC6)cc45)c(=O)c3cc2F)c1 [Example 435] | 6.97 nM | 37.4 nM | –
COc1ccc(Cl)c(-c2cc3[nH]c(=O)n(-c4cncc5nc(C67CC(F)(C6)C7)n(C)c45)c(=O)c3s2)c1 [Example 436] | 164 nM | – | 489 nM
COc1ccc(C#N)c(-c2cc3[nH]c(=O)n(-c4cncc5nc(C67CC(F)(C6)C7)n(C)c45)c(=O)c3s2)c1 [Example 437] | 535 nM | 10600 nM | –
COc1cc(-c2cc3[nH]c(=O)n(-c4cncc5cccc(F)c45)c(=O)c3s2)c(Cl)cc1F [Example 444, 6-(2-chloro-4-fluoro-5-methoxyphenyl)-3-(5-fluoroisoquinolin-4-yl)thieno[3,2-d]pyrimidine-2,4(1H,3H)-dione] | 5.45 nM | 8.86 nM | –
COc1ccc(Cl)c(-c2cc3[nH]c(=O)n(-c4cncc5cccc(F)c45)c(=O)c3s2)c1 [Example 445] | 5.71 nM | 22 nM | –
COc1ccc(C#N)c(-c2cc3[nH]c(=O)n(-c4cncc5cccc(F)c45)c(=O)c3s2)c1 [Example 446] | 8.74 nM | 25.5 nM | –
COc1ccc2cncc(-n3c(=O)[nH]c4cc(-c5ccccc5Cl)sc4c3=O)c2n1 [Example 449, 6-(2-chlorophenyl)-3-(2-methoxy-1,6-naphthyridin-8-yl)thieno[3,2-d]pyrimidine-2,4(1H,3H)-dione] | 14 nM | 29.2 nM | –
O=c1[nH]c2cc(-c3ccccc3Cl)ccc2c(=O)n1-c1cncc2cccnc12 [Example 450] | 127 nM | 211 nM | –
O=c1ccc2cncc(-n3c(=O)[nH]c4cc(-c5ccccc5Cl)sc4c3=O)c2[nH]1 [Example 452, 6-(2-chlorophenyl)-3-(2-oxo-1,2-dihydro-1,6-naphthyridin-8-yl)thieno[3,2-d]pyrimidine-2,4(1H,3H)-dione] | 9.24 nM | 82.5 nM | –
Cc1ccc2cncc(-n3c(=O)[nH]c4cc(-c5ccccc5Cl)sc4c3=O)c2n1 [Example 453, 6-(2-chlorophenyl)-3-(2-methyl-1,6-naphthyridin-8-yl)thieno[3,2-d]pyrimidine-2,4(1H,3H)-dione] | 3.83 nM | 22.1 nM | –
COc1cc(-c2cc3[nH]c(=O)n(-c4cncc5ccn(C)c45)c(=O)c3s2)c(Cl)cc1F [Example 454, 6-(2-chloro-4-fluoro-5-methoxyphenyl)-3-(1-methyl-1H-pyrrolo[3,2-c]pyridin-7-yl)thieno[3,2-d]pyrimidine-2,4(1H,3H)-dione] | 4.8 nM | 3.89 nM | –
COc1ccc(Cl)c(-c2cc3[nH]c(=O)n(-c4cncc5ccn(C)c45)c(=O)c3s2)c1 [Example 455] | 7.26 nM | 7.02 nM | –
COc1ccc(Cl)c(-c2cc3[nH]c(=O)n(-c4cncc5cccnc45)c(=O)c3s2)c1 [Example 456, 6-(2-chloro-5-methoxyphenyl)-3-(1,6-naphthyridin-8-yl)thieno[3,2-d]pyrimidine-2,4(1H,3H)-dione] | 3.59 nM | 6.79 nM | –
COc1ccc(Cl)c(-c2cc3[nH]c(=O)n(-c4cncc5ccc(N6CCOCC6)nc45)c(=O)c3s2)c1 [Example 457] | < 2.54 nM | < 6.04 nM | –
COc1ccc(Cl)c(-c2cc3[nH]c(=O)n(-c4cncc5ccc(N6CCS(=O)(=O)CC6)nc45)c(=O)c3s2)c1 [Example 458] | 12.1 nM | 188 nM | –
COc1ccc(Cl)c(-c2cc3[nH]c(=O)n(-c4cncc5ccc(C)nc45)c(=O)c3s2)c1 [Example 459] | 18.1 nM | 20.2 nM | –
COc1ccc(C#N)c(-c2cc3[nH]c(=O)n(-c4cncc5cccnc45)c(=O)c3s2)c1 [Example 460, 2-(3-(1,6-naphthyridin-8-yl)-2,4-dioxo-1,2,3,4-tetrahydrothieno[3,2-d]pyrimidin-6-yl)-4-methoxybenzonitrile] | 9.01 nM | 60.7 nM | –
COc1cc(-c2cc3[nH]c(=O)n(-c4cncc5ccc(C)nc45)c(=O)c3s2)c(Cl)cc1F [Example 461, 6-(2-chloro-4-fluoro-5-methoxyphenyl)-3-(2-methyl-1,6-naphthyridin-8-yl)thieno[3,2-d]pyrimidine-2,4(1H,3H)-dione] | 8.07 nM | – | 10 nM
COc1ccc(Cl)c(-c2ccc3c(=O)n(-c4cncc5cccnc45)c(=O)[nH]c3c2)c1 [Example 462, 7-(2-chloro-5-methoxyphenyl)-3-(1,6-naphthyridin-8-yl)quinazoline-2,4(1H,3H)-dione] | 28.4 nM | 61.5 nM | –
COc1cc(-c2cc3[nH]c(=O)n(-c4cncc5ccccc45)c(=O)c3s2)ccc1F [Example 469, 6-(4-fluoro-3-methoxy-phenyl)-3-(4-isoquinolyl)-1H-thieno[3,2-d]pyrimidine-2,4-dione] | 276 nM | 334 nM | –
